ChEMBL document CHEMBL3120154, “2-[N-Alkyl(R-phenyl)-aminomethyl]-3-phenyl-7-trifluoromethylquinoxalines as anticancer agents inhibitors of folate enzymes” (Eur J Med Chem, 2014)

What was measured:
Format in all cases: functional
[1] = test system: SR; assay: Cytotoxicity against human SR cells at 10^-8 M after 48 hrs by SRB assay; conditions: read-out: GI
[2] = Cytotoxicity against human UACC257 cells after 48 hrs by SRB assay; conditions: UACC-257, 48 h
[3] = test system: T47D; assay: Cytotoxicity against human T47D cells at 10^-8 M after 48 hrs by SRB assay; conditions: read-out: GI
[4] = test system: MDA-MB-435; assay: Cytotoxicity against human MDA-MB-435 cells at 10^-8 M after 48 hrs by SRB assay; conditions: MDA-MB-435, 48 h, read-out: GI
[5] = test system: NCI/ADR-RES; assay: Cytotoxicity against human NCI/ADR-RES cells at 10^-8 M after 48 hrs by SRB assay; conditions: read-out: GI
[6] = test system: PC-3; assay: Cytotoxicity against human PC3 cells at 10^-8 M after 48 hrs by SRB assay; conditions: PC-3, 48 h, read-out: GI
[7] = test system: ACHN; assay: Cytotoxicity against human ACHN cells at 10^-8 M after 48 hrs by SRB assay; conditions: read-out: GI
[8] = test system: 786-0; assay: Cytotoxicity against human 786-0 cells at 10^-8 M after 48 hrs by SRB assay; conditions: 786-0, 48 h, read-out: GI
[9] = test system: UACC-62; assay: Cytotoxicity against human UACC62 cells at 10^-8 M after 48 hrs by SRB assay; conditions: UACC-62, 48 h, read-out: GI
[10] = test system: SK-MEL-2; assay: Cytotoxicity against human SK-MEL-2 cells at 10^-8 M after 48 hrs by SRB assay; conditions: SK-MEL-2, 48 h, read-out: GI
[11] = test system: M14; assay: Cytotoxicity against human M14 cells at 10^-8 M after 48 hrs by SRB assay; conditions: M14, 48 h, read-out: GI
[12] = test system: LOX IMVI; assay: Cytotoxicity against human LOXIMVI cells at 10^-8 M after 48 hrs by SRB assay; conditions: read-out: GI
[13] = test system: U-251; assay: Cytotoxicity against human U251 cells at 10^-8 M after 48 hrs by SRB assay; conditions: U-251, 48 h, read-out: GI
[14] = test system: KM12; assay: Cytotoxicity against human KM12 cells at 10^-8 M after 48 hrs by SRB assay; conditions: KM12, 48 h, read-out: GI
[15] = test system: HCT-15; assay: Cytotoxicity against human HCT15 cells at 10^-8 M after 48 hrs by SRB assay; conditions: HCT-15, 48 h, read-out: GI
[16] = test system: NCI-H460; assay: Cytotoxicity against human NCI-H460 cells at 10^-8 M after 48 hrs by SRB assay; conditions: NCI-H460, 48 h, read-out: GI
[17] = test system: NCI-H226; assay: Cytotoxicity against human NCI-H226 cells at 10^-8 M after 48 hrs by SRB assay; conditions: NCI-H226, 48 h, read-out: GI
[18] = test system: HOP-62; assay: Cytotoxicity against human HOP62 cells at 10^-8 M after 48 hrs by SRB assay; conditions: HOP-62, 48 h, read-out: GI
[19] = test system: K562; assay: Cytotoxicity against human K562 cells at 10^-8 M after 48 hrs by SRB assay; conditions: K562, 48 h, read-out: GI
[20] = test system: T47D; assay: Cytotoxicity against human T47D cells at 10^-7 M after 48 hrs by SRB assay; conditions: read-out: GI
[21] = test system: MDA-MB-435; assay: Cytotoxicity against human MDA-MB-435 cells at 10^-7 M after 48 hrs by SRB assay; conditions: MDA-MB-435, 48 h, read-out: GI
[22] = test system: NCI/ADR-RES; assay: Cytotoxicity against human NCI/ADR-RES cells at 10^-7 M after 48 hrs by SRB assay; conditions: read-out: GI
[23] = test system: DU-145; assay: Cytotoxicity against human DU145 cells at 10^-7 M after 48 hrs by SRB assay; conditions: DU-145, 48 h, read-out: GI
[24] = test system: PC-3; assay: Cytotoxicity against human PC3 cells at 10^-7 M after 48 hrs by SRB assay; conditions: PC-3, 48 h, read-out: GI
[25] = test system: CAKI-1; assay: Cytotoxicity against human Caki1 cells at 10^-7 M after 48 hrs by SRB assay; conditions: CAKI-1, 48 h, read-out: GI
[26] = test system: 786-0; assay: Cytotoxicity against human 786-0 cells at 10^-7 M after 48 hrs by SRB assay; conditions: 786-0, 48 h, read-out: GI
[27] = Cytotoxicity against human OVCAR5 cells at 10^-7 M after 48 hrs by SRB assay; conditions: OVCAR-5, 48 h, read-out: GI
[28] = test system: OVCAR-3; assay: Cytotoxicity against human OVCAR3 cells at 10^-7 M after 48 hrs by SRB assay; conditions: OVCAR-3, 48 h, read-out: GI
[29] = test system: UACC-62; assay: Cytotoxicity against human UACC62 cells at 10^-7 M after 48 hrs by SRB assay; conditions: UACC-62, 48 h, read-out: GI
[30] = test system: SK-MEL-28; assay: Cytotoxicity against human SK-MEL-28 cells at 10^-7 M after 48 hrs by SRB assay; conditions: SK-MEL-28, 48 h, read-out: GI
[31] = test system: SK-MEL-5; assay: Cytotoxicity against human SK-MEL-5 cells at 10^-7 M after 48 hrs by SRB assay; conditions: SK-MEL-5, 48 h, read-out: GI
[32] = test system: U-251; assay: Cytotoxicity against human U251 cells at 10^-7 M after 48 hrs by SRB assay; conditions: U-251, 48 h, read-out: GI
[33] = test system: SNB-19; assay: Cytotoxicity against human SNB19 cells at 10^-7 M after 48 hrs by SRB assay; conditions: SNB-19, 48 h, read-out: GI
[34] = test system: SW-620; assay: Cytotoxicity against human SW620 cells at 10^-7 M after 48 hrs by SRB assay; conditions: SW-620, 48 h, read-out: GI
[35] = test system: HCT-15; assay: Cytotoxicity against human HCT15 cells at 10^-7 M after 48 hrs by SRB assay; conditions: HCT-15, 48 h, read-out: GI
[36] = test system: HCC 2998; assay: Cytotoxicity against human HCC2998 cells at 10^-7 M after 48 hrs by SRB assay; conditions: HCC 2998, 48 h, read-out: GI
[37] = test system: NCI-H322M; assay: Cytotoxicity against human NCI-H322M cells at 10^-7 M after 48 hrs by SRB assay; conditions: read-out: GI
[38] = test system: NCI-H226; assay: Cytotoxicity against human NCI-H226 cells at 10^-7 M after 48 hrs by SRB assay; conditions: NCI-H226, 48 h, read-out: GI
[39] = test system: HOP-92; assay: Cytotoxicity against human HOP92 cells at 10^-7 M after 48 hrs by SRB assay; conditions: HOP-92, 48 h, read-out: GI
[40] = test system: RPMI-8226; assay: Cytotoxicity against human RPMI8226 cells at 10^-7 M after 48 hrs by SRB assay; conditions: RPMI-8226, 48 h, read-out: GI
[41] = test system: CCRF-CEM; assay: Cytotoxicity against human CCRF-CEM cells at 10^-7 M after 48 hrs by SRB assay; conditions: read-out: GI
[42] = test system: HCC 2998; assay: Cytotoxicity against human HCC2998 cells at 10^-6 M after 48 hrs by SRB assay; conditions: HCC 2998, 48 h, read-out: GI
[43] = test system: SF-295; assay: Cytotoxicity against human SF295 cells at 10^-5 M after 48 hrs by SRB assay; conditions: SF-295, 48 h, read-out: GI
[44] = test system: HCC 2998; assay: Cytotoxicity against human HCC2998 cells at 10^-5 M after 48 hrs by SRB assay; conditions: HCC 2998, 48 h, read-out: GI
[45] = test system: Malme-3M; assay: Cytotoxicity against human MALME-3M cells at 10^-5 M after 48 hrs by SRB assay; conditions: read-out: GI

CCN(Cc1nc2cc(C(F)(F)F)ccc2nc1-c1ccccc1)c1ccc(OC)c(OC)c1
inhibition of growth at 0.01 µM [1]: < 40%
GI50 [2]: 25.1 nM
inhibition of growth at 0.01 µM [3]: < 40%
inhibition of growth at 0.01 µM [4]: < 40%
inhibition of growth at 0.01 µM [5]: < 40%
inhibition of growth at 0.01 µM [6]: < 40%
inhibition of growth at 0.01 µM [7]: < 40%
inhibition of growth at 0.01 µM [8]: < 40%
inhibition of growth at 0.01 µM [9]: < 40%
inhibition of growth at 0.01 µM [10]: < 40%
inhibition of growth at 0.01 µM [11]: < 40%
inhibition of growth at 0.01 µM [12]: < 40%
inhibition of growth at 0.01 µM [13]: < 40%
inhibition of growth at 0.01 µM [14]: < 40%
inhibition of growth at 0.01 µM [15]: < 40%
inhibition of growth at 0.01 µM [16]: < 40%
inhibition of growth at 0.01 µM [17]: < 40%
inhibition of growth at 0.01 µM [18]: < 40%
inhibition of growth at 0.01 µM [19]: < 40%
inhibition of growth at 0.1 µM [20]: < 40%
inhibition of growth at 0.1 µM [21]: < 40%
inhibition of growth at 0.1 µM [22]: < 40%
inhibition of growth at 0.1 µM [23]: < 40%
inhibition of growth at 0.1 µM [24]: < 40%
inhibition of growth at 0.1 µM [25]: < 40%
inhibition of growth at 0.1 µM [26]: < 40%
inhibition of growth at 0.1 µM [27]: < 40%
inhibition of growth at 0.1 µM [28]: < 40%
inhibition of growth at 0.1 µM [29]: < 40%
inhibition of growth at 0.1 µM [30]: < 40%
inhibition of growth at 0.1 µM [31]: < 40%
inhibition of growth at 0.1 µM [32]: < 40%
inhibition of growth at 0.1 µM [33]: < 40%
inhibition of growth at 0.1 µM [34]: < 40%
inhibition of growth at 0.1 µM [35]: < 40%
inhibition of growth at 0.1 µM [36]: < 40%
inhibition of growth at 0.1 µM [37]: < 40%
inhibition of growth at 0.1 µM [38]: < 40%
inhibition of growth at 0.1 µM [39]: < 40%
inhibition of growth at 0.1 µM [40]: < 40%
inhibition of growth at 0.1 µM [41]: < 40%
inhibition of growth at 1 µM [42]: < 40%
inhibition of growth at 10 µM [43]: 18%
inhibition of growth at 10 µM [44]: 15%

C#CCN(Cc1nc2cc(C(F)(F)F)ccc2nc1-c1ccccc1)c1ccc(C)cc1
inhibition of growth at 10 µM [45]: 41%
